Measured values as given in patent US4575560A, “Insecticidal diaminoguanidine hydrazone compounds” (American Cyanamid Company, priority 1985, dated 1986).
In brackets after ≈: the same amount, converted by molar mass. Where two headings read alike, the source gives them in different places.

Legend:
[1] = tested on: Tobacco Budworm 3rd Instar; assay: Tobacco budworm secondary test, third-instar larvae on treated cotton cotyledons; assay type: in vivo, Heliothis virescens (Fabricus)
Protocol: Tobacco Budworm--Heliothis virescens (Fabricus)
Three cotton plants with just expanded cotyledons are dipped in 1000 ppm solution and placed in the hood to dry. When dry, each cotyledon is cut in half, and 10 are each placed in a 28 g plastic medicine cup containing a 1.25 cm dental wick saturated with water, and one third-instar budworm larva is added. The cup is capped and held for three days at 80° F., 50% relative humidity, after which mortality counts are made.

[2] = tested on: Southern Armyworm; assay: Southern armyworm test, third-instar larvae on treated Sieva lima bean leaves; assay type: in vivo, Spodoptera eridania (Cramer)
Protocol: Test formulations and procedures used for evaluation are as follows:
A. 100 mg of the test material is weighed, placed in a funnel over a 113 g narrow-mouth bottle, rinsed into the bottle with a 35 mL scoop of acetone, followed by a 35 mL scoop of water and another 35 mL scoop of acetone to yield 1000 ppm in 65% acetone. If the material is not soluble, it is broken up with a glass rod and used as a suspension.
B. This stock solution ("A") is used to make 300 ppm solutions or suspensions by pipetting 30 mL of "A" into a bottle containing 70 mL of 50% acetone to yield 300 ppm. Further dilutions in 50% acetone are made as required.
C. Tests requiring 10 ppm acetone solutions: 1 mL of "A" is pipetted into 99 mL of acetone to yield 10 ppm. Additional dilutions are made using 50% acetone as required.
Southern Armyworm--Spodoptera eridania (Cramer)
A Sieva lima bean plant with just the primary leaves expanded to 1.91 cm is dipped for three seconds with agitation in the "A" solution of 1000 ppm and set in the hood to dry. Following this, one leaf is placed in a 9 cm petri dish which has a moist filter paper in the bottom and 10 third-instar armyworm larvae about 1 cm long. This dish is covered and held at 80° F., and 50% r.h. After two days, mortality counts and estimates of the amount of feeding are made. Compounds showing partial kill and/or inhibition of feeding are held for an extra day for further observations.
All compounds showing activity as defined above are retested, using the second leaf on the bean plant, after an interval of seven days from original treatment, as an assay of residual activity.

Row | Structure (SMILES) | Mortality Rating Tobacco Budworm 3rd Instar ([1]; 100 ppm) | reduced feeding (R) Tobacco Budworm 3rd Instar ([1]; 100 ppm) | Mortality Rating Tobacco Budworm 3rd Instar ([1]; 1000 ppm) | Mortality Rating Southern Armyworm ([2]; 10 ppm, third-instar larvae) | Mortality Rating Southern Armyworm ([2]; 100 ppm, third-instar larvae) | Mortality Rating Southern Armyworm ([2]; 1000 ppm, third-instar larvae) | reduced feeding (R) Tobacco Budworm 3rd Instar ([1]; 1000 ppm) | Mortality Rating Tobacco Budworm 3rd Instar ([1]; 10 ppm) | LC50 ([2]; Spodoptera eridania; read-out: LC50 Southern Armyworm) | LC50 ([2]; Spodoptera eridania, read-out: LC50 Southern Armyworm) | reduced feeding (R) Tobacco Budworm 3rd Instar ([1]; 10 ppm)
1 | N=C(NN=Cc1ccc(OC(F)(F)C(Cl)Cl)cc1)NN=Cc1ccc(OC(F)(F)C(Cl)Cl)cc1 [HCCL2 CF2 O / S] | 0 (No effect) | R | 5 (56-65%) | 7 (76-85%) | 9 (100%) | 9 (100%) |  |  |  |  | 
2 | N=C(NN=Cc1ccc(OC(F)(F)C(Cl)Cl)cc1)NN=Cc1ccc(OC(F)(F)C(Cl)Cl)cc1 [HCCl2 CF2 O / B] |  |  | 4 (46-55%) | 0 (No effect) | 0 (No effect) | 9 (100%) | R |  |  |  | 
3 | N=C(NN=Cc1ccc(OC(F)(F)C(F)F)cc1)N(N=Cc1ccc(OC(F)(F)C(F)F)cc1)C(=O)N1CCCC1 [HCF2 CF2 O / HCF2 CF2 O / (CH2)4] | 0 (No effect) |  | 3 (36-45%) |  | 9 (100%) | 9 (100%) |  |  |  |  | 
4 | CC(C)OC(=O)N(N=Cc1ccc(OC(F)(F)C(F)F)cc1)C(=N)NN=Cc1ccc(OC(F)(F)C(F)F)cc1 [HCF2 CF2 O / HCF2 CF2 O / -i-C3 H7] | 0 (No effect) |  | 5 (56-65%) | 0 (No effect) | 9 (100%) | 9 (100%) |  |  |  |  | 
5 | CCN(CC)C(=O)N(N=Cc1ccc(OC(F)(F)C(F)F)cc1)C(=N)NN=Cc1ccc(OC(F)(F)C(F)F)cc1 [HCF2 CF2 O / HCF2 CF2 O / C2 H5 / C2 H5] | 0 (No effect) |  | 5 (56-65%) | 1 (11-25%) | 9 (100%) | 9 (100%) |  | 0 (No effect) |  |  | 
6 | CCNC(=O)N(N=Cc1ccc(OC(F)(F)C(F)F)cc1)C(=N)NN=Cc1ccc(OC(F)(F)C(F)F)cc1 [HCF2 CF2 O / HCF2 CF2 O / C2 H5 / H] |  |  | 4 (46-55%) | 0 (No effect) | 9 (100%) | 9 (100%) |  |  | 34 µg/mL (≈ 59.8 µM) |  | 
7 | CNC(=O)N(N=Cc1ccc(OC(F)(F)C(F)F)cc1)C(=N)NN=Cc1ccc(OC(F)(F)C(F)F)cc1 [HCF2 CF2 O / HCF2 CF2 O / CH3 / H] |  |  | 4 (46-55%) | 0 (No effect) | 9 (100%) | 9 (100%) |  |  |  |  | 
8 | N=C(NN=Cc1ccc(OC(F)(F)C(F)F)cc1)N(N=Cc1ccc(OC(F)(F)C(F)F)cc1)C(=O)NCCCl [HCF2 CF2 O / HCF2 CF2 O / ClCH2 CH2 / H] | 0 (No effect) |  | 6 (66-75%) | 0 (No effect) | 8 (86-99%) | 9 (100%) |  | 0 (No effect) |  | 21 µg/mL (≈ 34.8 µM) | 
9 | N=C(NN=Cc1ccc(SC(F)(F)C(F)F)cc1)NN=Cc1ccc(SC(F)(F)C(F)F)cc1 [HCF2 CF2 S / B] |  |  | 0 (No effect) |  | 9 (100%) | 9 (100%) | R |  |  |  | 
10 | CC(C)OC(=O)N(N=Cc1ccc(SC(F)(F)C(F)F)cc1)C(=N)NN=Cc1ccc(SC(F)(F)C(F)F)cc1 [HCF2 CF2 S / HCF2 CF2 S / -i-C3 H7] | 0 (No effect) |  | 5 (56-65%) |  | 9 (100%) | 9 (100%) | R |  |  |  | 
11 | CN(C)C(=O)N(N=Cc1ccc(SC(F)(F)C(F)F)cc1)C(=N)NN=Cc1ccc(SC(F)(F)C(F)F)cc1 [HCF2 CF2 S / HCF2 CF2 S / CH3 / CH3] | 6 (66-75%) |  | 6 (66-75%) | 3 (36-45%) | 9 (100%) | 9 (100%) |  | 0 (No effect) |  |  | 
12 | CCOC(=O)N(N=Cc1ccc(OC(F)F)cc1)C(=N)NN=Cc1ccc(OC(F)F)cc1 [HCF2 O / HCF2 O / C2 H5] |  |  | 2 (26-35%) | 0 (No effect) | 9 (100%) | 9 (100%) |  |  |  |  | 
13 | N=C(NN=Cc1ccc(SC(F)F)cc1)NN=Cc1ccc(SC(F)F)cc1 [HCF2 S / B] | 0 (No effect) | R | 0 (No effect) |  | 9 (100%) | 8 (86-99%) | R | 0 (No effect) |  |  | 
14 | CCCOC(=O)N(N=Cc1ccc(SC(F)F)cc1)C(=N)NN=Cc1ccc(OC(F)F)cc1 [HCF2 S / HCF2 O / -n-C3 H7] |  |  | 0 (No effect) |  | 0 (No effect) | 9 (100%) |  |  |  |  | 
15 | CN(C)C(=O)N(N=Cc1ccc(SC(F)F)cc1)C(=N)NN=Cc1ccc(SC(F)F)cc1 [HCF2 S / HCF2 S / CH3 / CH3] |  |  | 0 (No effect) | 0 (No effect) | 9 (100%) | 9 (100%) |  |  |  |  | 
16 | N=C(NN=Cc1ccc(SC(F)F)cc1)N(N=Cc1ccc(SC(F)F)cc1)C(=O)OCCCl [HCF2 S / HCF2 S / ClCH2 CH2] |  |  | 0 (No effect) |  | 0 (No effect) | 9 (100%) | R |  |  |  | 
17 | CCOC(=O)N(N=Cc1ccc(SC(F)F)cc1)C(=N)NN=Cc1ccc(SC(F)F)cc1 [HCF2 S / HCF2 s / C2 H5] |  |  | 0 (No effect) |  | 0 (No effect) | 9 (100%) | R |  |  |  | 
18 | N=C(NN=Cc1ccc(SC(F)F)cc1)NN=Cc1ccc(SC(F)F)cc1 [HCF2 S / S] |  |  | 0 (No effect) |  | 9 (100%) | 9 (100%) | R |  |  |  | 
19 | N=C(NN=Cc1ccc(OC(F)(F)C(F)Cl)cc1)NN=Cc1ccc(OC(F)(F)C(F)Cl)cc1 (centres unmarked) [drawing 43 / B] | 0 (No effect) |  | 9 (100%) |  | 9 (100%) | 9 (100%) |  | 0 (No effect) |  |  | 
20 | N=C(NN=Cc1ccc(OC(F)(F)C(F)Cl)cc1)NN=Cc1ccc(OC(F)(F)C(F)Cl)cc1 (centres unmarked) [drawing 44 / S] | 0 (No effect) | R | 9 (100%) | 6 (66-75%) | 9 (100%) | 9 (100%) | R | 0 (No effect) |  |  | R
